Source: the supplement of paper PMC10307832

Experiments:
Assay in all cases: relative viability (nuclei count vs DMSO), 5 days (fraction); higher = more cells survive
[1] = compound: CC1=CC(=NN1)NC2=CC(=NC(=N2)/C=C/C3=CC=CC=C3)N4CCN(CC4)C + C[C@]1(O)C[C@@H](c2nc(-c3ccc4ccc(-c5ccccc5)nc4c3)c3c(N)nccn32)C1 [Linsitinib] (partner 1 µM)
Summary of the method: (§1)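 Medians of duplicate plates are given as relative viability. That measure is the nuclei count in treated wells divided by the count in vehicle wells. Counts were taken on 4× images of lung cancer cell lines in 1536-well plates, 5 days after pin-tool dosing the day after seeding with one drug alone or a fixed anchor-drug dose plus five library-drug doses (not always all listed) in √10 steps.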

[2] = compound: CC1=CC(=NN1)NC2=CC(=NC(=N2)/C=C/C3=CC=CC=C3)N4CCN(CC4)C + Cc1nc(NC(=O)N2CCC[C@H]2C(N)=O)sc1-c1ccnc(C(C)(C)C(F)(F)F)c1 [Alpelisib] (partner 2 µM)
Summary of the method: as §1

[3] = compound: COC1=CC(c2cc3ccccc3[nH]2)=N/C1=C\c1[nH]c(C)cc1C [Obatoclax] + CC1(C)CCC(c2ccc(Cl)cc2)=C(CN2CCN(c3ccc(C(=O)NS(=O)(=O)c4ccc(N[C@H](CCN5CCOCC5)CSc5ccccc5)c(S(=O)(=O)C(F)(F)F)c4)cc3)CC2)C1 [Navitoclax] (partner 0.5 µM)
Summary of the method: as §1

[4] = compound: COC1=CC(c2cc3ccccc3[nH]2)=N/C1=C\c1[nH]c(C)cc1C [Obatoclax] + O=C(CCCCCCC(=O)Nc1ccccc1)NO [Vorinostat] (partner 1 µM)
Summary of the method: as §1

Cell Line	relative viability ([1]; first compound 0.08 µM)	relative viability ([1]; first compound 0.253 µM)	relative viability ([1]; first compound 0.8 µM)	relative viability ([1]; first compound 2.53 µM)	relative viability ([1]; first compound 8 µM)	relative viability ([2]; first compound 0.08 µM)	relative viability ([2]; first compound 0.253 µM)	relative viability ([2]; first compound 0.8 µM)	relative viability ([2]; first compound 2.53 µM)	relative viability ([2]; first compound 8 µM)	relative viability ([3]; first compound 0.01 µM)	relative viability ([3]; first compound 0.03162 µM)	relative viability ([3]; first compound 0.1 µM)	relative viability ([3]; first compound 0.3162 µM)	relative viability ([3]; first compound 1 µM)	relative viability ([4]; first compound 0.01 µM)	relative viability ([4]; first compound 0.03162 µM)	relative viability ([4]; first compound 0.1 µM)	relative viability ([4]; first compound 0.3162 µM)	relative viability ([4]; first compound 1 µM)
RERF-LC-KJ	0.817	0.863	0.792	0.604	0.216	0.788	0.978	0.828	0.573	0.314	1.04	0.845	0.729	0.875	0.319	0.649	0.791	0.709	0.595	0.474
NCI-H1755	1.05	1.04	0.993	0.799	0.267	0.9	1.07	0.887	0.456	0.155	0.974	0.966	1	0.951	1.04	0.698	0.765	0.767	0.753	0.728
NCI-H2126	0.647	0.72	0.716	0.621	0.421	0.776	0.802	0.76	0.674	0.377	0.837	0.839	0.875	0.887	0.908	0.748	0.688	0.993	0.807	0.792
EPLC-272H	1.11	1.32	1.06	0.675	0.367	0.901	1.07	0.79	0.513	0.244	1.1	1.16	1.38	1.03	1.26	0.567	0.561	0.399	0.175	0.176
NCI-H1975	0.904	0.951	0.722	0.203	0.127	0.59	0.655	0.42	0.141	0.109	1.18	1.1	0.975	0.943	1.01	0.674	0.775	0.73	0.735	0.788
NCI-H3122	1.01	0.944	0.999	0.884	0.77	0.769	0.799	0.902	0.621	0.257	1.02	1.01	1.04	1.04	1.02	0.981	0.783	1.03	0.991	1.07
COR-L 105	0.815	1.08	1.01	0.331	0.192	0.946	1.08	0.967	0.605	0.186	0.815	0.649	0.792	0.741	0.388	0.837	0.905	0.885	0.725	0.445
BEN	0.953	0.955	0.96	0.76	0.194	1.06	1.1	0.986	0.865	0.186	0.0996	0.0601	0.052	0.0537	0.078	0.594	0.486	0.521	0.556	0.621
NCI-H1915	1.1	1.1	1.03	0.815	0.569	1.07	1.07	0.977	0.806	0.324	0.766	0.638	0.711	0.76	0.785	0.543	0.426	0.501	0.481	0.538
NCI-H2009	1.08	1.16	1.21	1.05	0.155	1.09	1.19	1.16	1.13	0.241	1.13	1.23	1.15	1.17	0.258	0.723	0.73	0.634	0.502	0.251
COR-L23	0.868	0.809	0.839	0.173	0.0756	0.751	0.722	0.57	0.178	0.0573	1.08	1.06	0.883	0.257	0.2	0.562	0.507	0.42	0.166	0.18
NCI-H460	0.668	0.869	0.539	0.0075	0.0036	0.388	0.581	0.183	0.0086	0.0052	1.08	1.2	1.12	0.034	0.0115	0.706	0.717	0.692	0.103	0.0463
HCC-827	0.955	1.06	0.932	0.814	0.635	0.934	0.984	1.02	0.874	0.475	0.997	0.99	1.06	0.988	1	0.879	0.726	0.711	0.25	0.82
NCI-H322M	0.89	0.965	0.895	0.515	0.323	0.716	0.792	0.757	0.436	0.204	1.16	1.26	1.29	1.14	1.39	0.845	0.799	1.2	0.966	0.945
NCI-H1666	0.83	0.949	0.747	0.77	0.288	0.999	1.07	0.817	0.501	0.183	0.839	1.31	0.865	0.388	0.277	1.03	1.08	1.11	0.998	0.754
NCI-H1437	1.09	1.12	0.88	0.416	0.083	1.02	1.01	0.881	0.972	0.285	1.03	1.1	1.08	1.1	0.746	0.834	0.808	0.791	0.696	0.589
